Results published in PubChem BioAssay (NCI).
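Results reflect a 48-hour exposure of cells in 96-well plates to compound at five concentrations. At the GI50, growth is halved. TGI denotes the concentration required for complete inhibition of growth.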

Columns and labels:
Experiment in all cases: NCI-60 cell line screen, 48 h
[1] = system: 786-0 renal
[2] = system: A498 renal
[3] = system: A549 NSCLC
[4] = system: ACHN renal
[5] = system: BT-549 breast
[6] = system: CAKI-1 renal
[7] = system: CCRF-CEM leukemia
[8] = system: COLO 205 colon
[9] = system: DU-145 prostate
[10] = system: EKVX NSCLC
[11] = system: HCC-2998 colon
[12] = system: HCT-116 colon
[13] = system: HCT-15 colon
[14] = system: HL-60(TB) leukemia
[15] = system: HOP-62 NSCLC
[16] = system: HOP-92 NSCLC
[17] = system: HS 578T breast
[18] = system: HT29 colon
[19] = system: IGROV1 ovarian
[20] = system: K-562 leukemia
[21] = system: KM12 colon
[22] = system: M14 melanoma
[23] = system: MALME-3M melanoma
[24] = system: MCF7 breast
[25] = system: MDA-MB-231 breast
[26] = system: MDA-MB-435
[27] = system: MOLT-4 leukemia
[28] = system: NCI-H226 lung
[29] = system: NCI-H23 lung
[30] = system: NCI-H460 lung
[31] = system: NCI-H522 lung
[32] = system: NCI/ADR-RES ovarian
[33] = system: OVCAR-3 ovarian
[34] = system: OVCAR-4 ovarian
[35] = system: OVCAR-5 ovarian
[36] = system: OVCAR-8 ovarian
[37] = system: PC-3 prostate
[38] = system: RPMI-8226 leukemia
[39] = system: RXF 393 renal
[40] = system: SF-268 CNS
[41] = system: SF-295 CNS
[42] = system: SF-539 CNS
[43] = system: SK-MEL-2 melanoma
[44] = system: SK-MEL-28 melanoma
[45] = system: SK-MEL-5 melanoma
[46] = system: SK-OV-3 ovarian
[47] = system: SN12C renal
[48] = system: SNB-19 CNS
[49] = system: SNB-75 CNS
[50] = system: SR leukemia
[51] = system: SW-620 colon
[52] = system: T-47D breast
[53] = system: TK-10 renal
[54] = system: U251 CNS
[55] = system: UACC-257 melanoma
[56] = system: UACC-62 melanoma
[57] = system: UO-31 renal
[58] = system: LOX IMVI melanoma

Work on CN(CCCl)c1ccc(/C=C/C2=[N+](C)c3ccccc3C2(C)C)cc1 yielded a GI50 [1] of 3.9 µM, a TGI [1] of 15.9 µM and a GI50 [2] of 1.34 µM. For the same compound, the TGI [2] was 12.6 µM, the GI50 [3] was 0.9 µM and the TGI [3] was 12.5 µM. For the same compound, the GI50 [4] was 2.19 µM, the TGI [4] was 10.6 µM and the GI50 [5] was 0.424 µM. It also gave a TGI [5] of 4.85 µM, a GI50 [6] of 17.5 µM and a TGI [6] of 43.6 µM. It also gave a GI50 [7] of 0.151 µM, a TGI [7] of 5.75 µM and a GI50 [8] of 0.339 µM. The TGI [8] was 1.56 µM, the GI50 [9] was 0.598 µM and the TGI [9] was 15.3 µM. It also gave a GI50 [10] of 0.863 µM, a TGI [10] of 14.9 µM and a GI50 [11] of 1.6 µM. It also gave a TGI [11] of 12.8 µM, a GI50 [12] of 0.307 µM and a TGI [12] of 12.2 µM. For the same compound, the GI50 [13] was 6.3 µM, the TGI [13] was 21.7 µM and the GI50 [14] was 0.265 µM. The TGI [14] was 0.756 µM, the GI50 [15] was 1.07 µM and the TGI [15] was 10.9 µM. The GI50 [16] was 0.288 µM, the TGI [16] was 2.2 µM and the GI50 [17] was 1.53 µM. The TGI [17] was 32.1 µM, the GI50 [18] was 0.307 µM and the TGI [18] was 11.2 µM. It also gave a GI50 [19] of 1.73 µM, a TGI [19] of 18.6 µM and a GI50 [20] of 0.491 µM. It also gave a TGI [20] of 83.5 µM, a GI50 [21] of 0.355 µM and a TGI [21] of 1.55 µM. It also gave a GI50 [22] of 1.03 µM, a TGI [22] of 14.8 µM and a GI50 [23] of 0.575 µM. It also gave a TGI [23] of 4.3 µM, a GI50 [24] of 0.516 µM and a TGI [24] of 10.6 µM. It also gave a GI50 [25] of 0.579 µM, a TGI [25] of 5.59 µM and a GI50 [26] of 0.415 µM. For the same compound, the TGI [26] was 2.46 µM, the GI50 [27] was 0.308 µM and the TGI [27] was 1.4 µM. It also gave a GI50 [28] of 1.21 µM, a TGI [28] of 14.9 µM and a GI50 [29] of 0.434 µM. It also gave a TGI [29] of 11 µM, a GI50 [30] of 0.679 µM and a TGI [30] of 10.6 µM. For the same compound, the GI50 [31] was 0.296 µM, the TGI [31] was 3.89 µM and the GI50 [32] was 65.8 µM. For the same compound, the TGI [32] was > 100 µM, the GI50 [33] was 0.314 µM and the TGI [33] was 3.15 µM. For the same compound, the GI50 [34] was 1.62 µM, the TGI [34] was 10 µM and the GI50 [35] was 3.71 µM. The TGI [35] was 17.1 µM, the GI50 [36] was 0.353 µM and the TGI [36] was 12 µM. For the same compound, the GI50 [37] was 0.243 µM, the TGI [37] was 10.6 µM and the GI50 [38] was 0.331 µM. The TGI [38] was 2.46 µM, the GI50 [39] was 1.57 µM and the TGI [39] was 10.5 µM. The GI50 [40] was 0.691 µM, the TGI [40] was 13.5 µM and the GI50 [41] was 0.728 µM. It also gave a TGI [41] of 5.14 µM, a GI50 [42] of 2.11 µM and a TGI [42] of 13.8 µM. For the same compound, the GI50 [43] was 1.33 µM, the TGI [43] was 5.62 µM and the GI50 [44] was 0.685 µM. It also gave a TGI [44] of 15.6 µM, a GI50 [45] of 0.532 µM and a TGI [45] of 2.03 µM. It also gave a GI50 [46] of 0.713 µM, a TGI [46] of 5.41 µM and a GI50 [47] of 0.297 µM. The TGI [47] was 1.72 µM, the GI50 [48] was 0.495 µM and the TGI [48] was 15.5 µM. The GI50 [49] was 1.2 µM, the TGI [49] was 6.91 µM and the GI50 [50] was 0.332 µM. It also gave a TGI [50] of 12.5 µM, a GI50 [51] of 0.494 µM and a TGI [51] of 14 µM. For the same compound, the GI50 [52] was 0.706 µM, the TGI [52] was 10.2 µM and the GI50 [53] was 2.37 µM. For the same compound, the TGI [53] was 14.9 µM, the GI50 [54] was 0.253 µM and the TGI [54] was 11.2 µM. For the same compound, the GI50 [55] was 0.657 µM, the TGI [55] was 7.57 µM and the GI50 [56] was 0.482 µM. For the same compound, the TGI [56] was 7.68 µM, the GI50 [57] was 4.39 µM and the TGI [57] was 17.4 µM.

N[C@@H]1CCCN(c2c(/C=C3\SC(=O)NC3=O)cccc2-c2ccccc2)C1 showed a GI50 [1] of 15.4 µM, a TGI [1] of 29.8 µM and a GI50 [2] of 1.5 µM. It also gave a TGI [2] of 18.8 µM, a GI50 [3] of 13.6 µM and a TGI [3] of 31.8 µM. The GI50 [4] was 14.4 µM, the TGI [4] was 29.5 µM and the GI50 [5] was 11.5 µM. It also gave a TGI [5] of 24.1 µM, a GI50 [6] of 15 µM and a TGI [6] of 31.7 µM. For the same compound, the GI50 [7] was 14 µM, the TGI [7] was 38.8 µM and the GI50 [8] was 11.6 µM. For the same compound, the TGI [8] was 25.5 µM, the GI50 [9] was 13.7 µM and the TGI [9] was 28.1 µM. The GI50 [11] was 14.1 µM, the TGI [11] was 28.6 µM and the GI50 [12] was 13.1 µM. It also gave a TGI [12] of 26.9 µM, a GI50 [13] of 13.7 µM and a TGI [13] of 29.5 µM. It also gave a GI50 [14] of 17.8 µM, a TGI [14] of 42.6 µM and a GI50 [15] of 11.7 µM. It also gave a TGI [15] of 25.5 µM, a GI50 [16] of 3.17 µM and a TGI [16] of 20.1 µM. It also gave a GI50 [17] of 14 µM, a TGI [17] of 64 µM and a GI50 [18] of 12.8 µM. It also gave a TGI [18] of 27.8 µM, a GI50 [19] of 17.2 µM and a TGI [19] of 35.1 µM. The GI50 [20] was 11.7 µM, the TGI [20] was 54.2 µM and the GI50 [21] was 14.2 µM. For the same compound, the TGI [21] was 28.9 µM, the GI50 [58] was 15.7 µM and the TGI [58] was 30.1 µM. For the same compound, the GI50 [22] was 11.1 µM, the TGI [22] was 25.8 µM and the GI50 [23] was 7.52 µM. For the same compound, the TGI [23] was 24.5 µM, the GI50 [24] was 11.4 µM and the TGI [24] was 27.1 µM. For the same compound, the GI50 [25] was 7.77 µM, the TGI [25] was 23.1 µM and the GI50 [26] was 11.4 µM. It also gave a TGI [26] of 24.3 µM, a GI50 [27] of 14.7 µM and a TGI [27] of 45.6 µM. For the same compound, the GI50 [28] was 12.8 µM, the TGI [28] was 36.9 µM and the GI50 [29] was 15.3 µM. The TGI [29] was 33.1 µM, the GI50 [30] was 16.9 µM and the TGI [30] was 35.3 µM. It also gave a GI50 [31] of 11.5 µM, a TGI [31] of 25.3 µM and a GI50 [32] of 17.4 µM. The TGI [32] was 40.4 µM, the GI50 [33] was 15.3 µM and the TGI [33] was 29.4 µM. For the same compound, the GI50 [34] was 13.2 µM, the TGI [34] was 28.4 µM and the GI50 [35] was 10.5 µM. For the same compound, the TGI [35] was 23.4 µM, the GI50 [36] was 14 µM and the TGI [36] was 27.9 µM. It also gave a GI50 [37] of 10.2 µM, a TGI [37] of 25.2 µM and a GI50 [38] of 2.23 µM. It also gave a TGI [38] of 21.6 µM, a GI50 [39] of 6.06 µM and a TGI [39] of 20.2 µM. It also gave a GI50 [40] of 16.1 µM, a TGI [40] of 33.2 µM and a GI50 [41] of 3.57 µM. The TGI [41] was 15.9 µM, the GI50 [42] was 8.09 µM and the TGI [42] was 22.2 µM. The GI50 [43] was 15.2 µM, the TGI [43] was 30.3 µM and the GI50 [44] was 13.1 µM. The TGI [44] was 27.8 µM, the GI50 [45] was 11.2 µM and the TGI [45] was 23.6 µM. It also gave a GI50 [46] of 15.5 µM, a TGI [46] of 35 µM and a GI50 [47] of 14.4 µM. The TGI [47] was 29.5 µM, the GI50 [48] was 2.93 µM and the TGI [48] was 13.2 µM. The GI50 [49] was 3.31 µM, the TGI [49] was 17.5 µM and the GI50 [50] was 4.64 µM. For the same compound, the TGI [50] was 26.2 µM, the GI50 [51] was 12.8 µM and the TGI [51] was 28.3 µM. It also gave a GI50 [52] of 11.2 µM, a TGI [52] of 28.8 µM and a GI50 [53] of 13.6 µM. For the same compound, the TGI [53] was 26.8 µM, the GI50 [54] was 3.3 µM and the TGI [54] was 15.3 µM. For the same compound, the GI50 [55] was 10.9 µM, the TGI [55] was 23.5 µM and the GI50 [56] was 13.7 µM. For the same compound, the TGI [56] was 27.3 µM, the GI50 [57] was 12.7 µM and the TGI [57] was 27.3 µM.
